Assay: Inhibition of [3H]- pentazocine binding against guinea pig brain Sigma opioid receptor type 1

O=C1COc2cc(CN3CCN(c4ccc(Cl)cc4)CC3)ccc2N1 [7-[4-(4-Chloro-phenyl)-piperazin-1-ylmethyl]-4H-benzo[1,4]oxazin-3-one]
IC50: 285 nM

Source: BindingDB's records for doi:10.1021/jm990277d (Warner-Lambert, 2000)
